In one assay the target is T1, PAK3 (Homo sapiens, UniProt O75914).
T1 construct: Recombinant human full length PAK3 enzyme was obtained (Invitrogen); purchased Invitrogen
The assay is described as follows: Enzyme based PAK3 kinase assay (HTRF / TR-FRET), IC50. It is filed as biochemical. Particulars: PAK3 inhibitory compounds; IC50 done in quadruplicate. The method, then:
Recombinant human full length PAK3 enzyme was obtained (Invitrogen), immediately aliquoted and kept in storage buffer as purchased at −80° C. for long term storage. The HTRF® KinEASE™ kit (CisBio) containing 5× stock solution of the enzymatic buffer and 1× detection buffer, STK substrate 2-biotin (S2), a phosphospecific monoclonal Europium-labeled Cryptate antibody, which recognizes a phospholylation epitope of the biotinylated peptide, as donor fluorophore and Stretptavadin-linked XL665 (SA-XL665) representing the acceptor fluorophor were used for TR-FRET assays. The compound library consisted of approximately 125,000 small molecules, including compounds approved by the Food and Drug Administration (FDA), a purified natural products library and commercially available compounds from various vendors. All small molecules generally adhere to Lipinski's rules and have been optimized for maximization of molecular diversity.
An enzyme based kinase assay was carried out using full length recombinant PAK3 kinase. A model biotinylated peptide RRRSLLE (SEQ ID NO:5) was used as the substrate. Detection was done by Homogeneous Time Resolve Fluorescence (HTRF) with an antibody that recognizes the phosphorylation site on the peptide.
TR-FRET assays were carried out as follows. A CRS CataLyst Express robotic arm and a Cybi-well 384 channel simultaneous pipettor were used to carry out the High-Throughput Screen. Kinase reactions were performed in 50 mM HEPES, pH 7.0, 0.02% NaN3, 2 mM MgCl2, 0.01% BSA, 0.1 mM Orthonanadate, 1 mM DTT, 0.001% Tween-20, 0.001% Brij-35 using ProxiPlate-384 Plus white assay plates. […] The kinase reaction was initiated by addition of […] per reaction (25 μM ATP final, at the Km). The reaction was incubated for 30 minutes at room temperature. Reaction was terminated by addition of 10 μl of a premixed solution of EDTA, Europium cryptate-labeled antibody and fluorophore-conjugated streptavadin. After overnight incubation at room temperature, TR-FRET measurements were performed using a PHERAstar HTS microplate reader, and were expressed as ratios of acceptor fluorescence at 665 nm over donor fluorescence at 620 nm.
(§1) Data were analyzed using GraphPad Prism Version 5 (GraphPad Software Inc., La Jolla, Calif., USA). Each compound plate included one column of negative controls, were no enzyme was added, and another column for positive controls when no inhibitor compound was added; these were used to calculate Z′ factors and signal to noise ratios throughout the screen. […] IC50 determinations were done in quadruplicate for each compound using different adding sequences for compound and enzyme-substrate-mix. EC50 determinations were done in triplicate for each compound using different time points. For calculation of IC50 and EC50 concentrations, respectively, mean inhibition dose response curves were fitted to the sigmoidal response equation: Y=Bottom+(Top−Bottom)/(1+10̂((X−LogIC50))) were X is log(compound concentration) and Y is % inhibition, and Bottom and Top are the lower and upper plateau. Km concentrations were determined by non-linear regression curve fitting, using the equation: Y=Vmax*X/(Km+X), where X is the substrate concentration.
On the technique in general: Time-resolved FRET reads energy transfer from a long-lived donor to a nearby acceptor.

The test system of another assay is HeLa cells. Briefly: Cell-based assay in HeLa cells (AlamarBlue cell viability), EC50. On the set-up: species or system human. The method, then:
HeLa cells (ATCC) were maintained in Dulbecco's modified Eagle medium (DMEM) supplemented with 10% fetal bovine serum and 1% Penicillin/Streptomycin. Approximately 200 to 500 cells per well were seeded in a 96 well tissue culture plates. Following 24 h growth in normal DMEM, the individual compounds were warmed up to room temperature and diluted in DMEM to their according concentration and then immediately added to the wells. One column on each assay plate contained DMEM only (“neg. control”) and one column contained untreated HeLa cells as “pos. control”. Cells were treated with the compounds at various cell densities and for treatment periods ranging between 75 hrs and approx. 200 hrs. To control for cell viability, we assayed plates using AlamarBlue° (Invitrogen), which uses a redox reaction to measure metabolically active viable cells. At each time point the culture media was removed and a solution of 10% AlamarBlue reagent and DMEM was added to each well to measure cell viability. Fluorescence was measured after 1-2 hrs incubation at 37 C on a Victor^2 Plate Reader (PerkinElmer).
as §1
Compounds were tested in a cell-based assay (HeLa cells). IC50 and EC50 are expressed in micromolar units.
For orientation: Resazurin is reduced to fluorescent resorufin, in cell work by metabolically active cells.

In a further assay the test system is SGK2. Briefly: Inhibition of kinase activity by SGK2 inhibitory compounds, single concentration. It counts as biochemical. The settings on record: 10 μM compound. From the text:
A library of compounds was screened for inhibitors of SGK2 and PAK3 activity by assaying phosphorylation of a generic peptide substrate either directly; or indirectly by inhibiting upstream kinase PDK1 from activating the enzyme in vitro. In both cases, the phosphorylated substrate was detected using a specific anti-phospho peptide antibody that is coupled with Eu^3+ Cryptate and XL665 conjugated with streptavidin. […] All initial hits were re-assayed as a dose response series with eight 3-fold dilutions and resulting final concentrations ranged from 0.9 nM to 20 μM.

Setting [1] is: 75 h treatment, read-out: EC50 75 h.
[2] abbreviates: 150 h treatment, read-out: EC50 150 h.
[3] abbreviates: read-out: EC50 100 h, 100 h treatment.

The structures appear in SMILES notation. pEC50, pIC50: −log10 of the molar value. Where two headings read alike, the source gives them in different places.

T1 sequence (O75914 1-544 isoform O75914-2): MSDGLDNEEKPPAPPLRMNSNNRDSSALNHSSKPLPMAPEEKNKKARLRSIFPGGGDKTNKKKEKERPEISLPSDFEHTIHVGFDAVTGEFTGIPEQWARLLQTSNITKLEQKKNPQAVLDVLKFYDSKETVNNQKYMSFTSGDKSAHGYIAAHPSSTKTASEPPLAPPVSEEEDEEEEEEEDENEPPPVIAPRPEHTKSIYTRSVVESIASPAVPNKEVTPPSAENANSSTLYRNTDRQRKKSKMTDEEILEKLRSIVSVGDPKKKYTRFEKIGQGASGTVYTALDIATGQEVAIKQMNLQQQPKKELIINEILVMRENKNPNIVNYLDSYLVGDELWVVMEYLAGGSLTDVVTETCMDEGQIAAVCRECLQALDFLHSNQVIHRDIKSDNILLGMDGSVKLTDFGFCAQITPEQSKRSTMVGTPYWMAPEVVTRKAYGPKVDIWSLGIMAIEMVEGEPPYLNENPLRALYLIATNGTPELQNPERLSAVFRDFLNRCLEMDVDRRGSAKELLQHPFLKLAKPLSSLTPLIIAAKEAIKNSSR

Take `Cc1ccc(-c2c(C#N)c(SCC(=O)c3ccc(O)c(O)c3)nc3c2CCCC3)o1` [LDN-0026056]: at PAK3, the negative-log IC50 (pIC50) was 6.16. In addition, the pEC50 in the assay with HeLa cells (setting [1]) was 4.86; with HeLa cells (setting [2]) it was 4.74; in the assay on HeLa cells (setting [3]) it was 4.77.
Molecule `N#Cc1c(N)nc(SCc2ccccc2)c(C#N)c1-c1ccc(O)cc1` [LDN-0028618] had a pIC50 against PAK3 of 6.52. Further, the pEC50 is 4.88 in the assay on HeLa cells (setting [1]), 4.74 with HeLa cells (setting [2]) and 4.78 in the assay on HeLa cells (setting [3]). Moreover, the “% Inhibition at 10 μM” value with SGK2 is reported as 87%.
The like results for `Cc1cc(-c2ccco2)c(C#N)c(SCC(=O)c2ccc(O)c(O)c2)n1` [LDN-0041012] were, in that order, 6.21, 5.34, 5.47, 5.34 and 95%.
The like results for `COc1ccc(-c2nc(-c3ccc(Sc4ccccc4)cc3)c(-c3ccccc3)[nH]2)cc1` [LDN-0044878] were, in that order, 7.52, 4.97, 4.95, 4.81 and 79%.
In turn, `Cc1nc(-c2ccccc2)c(-c2ccccc2)[nH]1` [LDN-0091420] gave a negative logarithm of the IC50 (pIC50) at PAK3 of 4.99. For the same molecule, the pEC50 in the assay on HeLa cells (setting [1]) was 4.42; in the assay with HeLa cells (setting [2]), 4.37; in the assay on HeLa cells (setting [3]), 4.39.
On to `O=c1cc(C2Oc3cc(O)cc(O)c3CC2O)cc2c(C3Oc4cc(O)cc(O)c4CC3O)cc(O)c(O)c2c1O` (stereo not drawn) [LDN-0096771], for which the “% Inhibition at 10 μM” value in the assay with SGK2 is 89%.
On the same count and under the same terms, in the case of `O=c1c(-c2cc(O)c(O)c(O)c2)coc2cc(O)c(O)c(O)c12` [LDN-0096812] it was 97%; in that of `Oc1cc2c(cc1O)C1c3ccc(O)c(O)c3OCC1(O)C2` (stereo not drawn) [LDN-0096990], 91%.
Still for that read-out and setting: in the case of `Oc1cc(O)c2c(c1)OC(c1cc(O)c(O)c(O)c1)C(O)C2` (stereo not drawn) [LDN-0097128] it was 68%; in that of `C=C1c2c(Cl)ccc(O)c2C(=O)C2=C(O)C3(O)C(=O)C(C(N)=O)=C(O)C(N(C)C)C3C(O)C12.O=C(O)c1cc(S(=O)(=O)O)ccc1O` (stereo not drawn) [LDN-0097423], 76%.
Still for that read-out and setting: under `O=c1oc2c(O)c(O)cc3c(=O)oc4c(O)c(O)cc1c4c23` [LDN-0097519] stands 85%.
Regarding `O=C1C=C2CC3(O)COc4c(ccc(O)c4O)C3=C2C=C1O` (stereo not drawn) [LDN-0097524], the “% Inhibition at 10 μM” value with SGK2 is recorded as 93%.
The same measure, in the same setting: under `O=C(OCC1OC(OC(=O)c2cc(O)c(O)c(OC(=O)c3cc(O)c(O)c(O)c3)c2)C(OC(=O)c2cc(O)c(O)c(OC(=O)c3cc(O)c(O)c(O)c3)c2)C(OC(=O)c2cc(O)c(O)c(OC(=O)c3cc(O)c(O)c(O)c3)c2)C1OC(=O)c1cc(O)c(O)c(OC(=O)c2cc(O)c(O)c(O)c2)c1)c1cc(O)c(O)c(OC(=O)c2cc(O)c(O)c(O)c2)c1` (stereo not drawn) [LDN-0097728] stands 85%.
For `O=c1cc(-c2cc(O)c(O)c(O)c2)oc2cc(O)cc(O)c12` [LDN-0097731], the “% Inhibition at 10 μM” value with SGK2 worked out at 87%.
On the same count and under the same terms, under `CCc1cc(-c2n[nH]cc2-c2ccc(Br)cc2)c(O)cc1O` [LDN-0106197] stands 67%.
In the case of `O=C(CSc1ncnc2c1oc1ccccc12)Nc1ccccc1` [LDN-0107896], the “% Inhibition at 10 μM” value in the assay with SGK2 is recorded as 73%.
Same read-out and setting: in the case of `COc1ccc(NC(=O)CSc2ncnc3c2oc2ccccc23)cc1` [LDN-0107905] it was 66%; in that of `Cc1cccc(NC(=O)CSc2ncnc3c2oc2ccccc23)c1C` [LDN-0107915], 67%; in that of `O=C(Nc1cccc(-c2cscn2)c1)C1CCN(Cc2cccc(-c3ccco3)c2)CC1` [LDN-0117557], 60%.
The same measure, in the same setting: under `Cc1ccc(NC(=O)Cn2cc(C(=O)c3ccccc3)c(=O)c3ccc(C)nc32)cc1` [LDN-0130103] stands 62%; under `Cc1ccc2c(=O)c(C(=O)c3ccccc3)cn(CC(=O)Nc3cccc(C)c3C)c2n1` [LDN-0130105], 70%.
At PAK3, `Cc1cc(C)c(C#N)c(SCC(=O)c2ccc(O)c(O)c2)n1` [LDN-0211955] had a pIC50 of 5.45. Further, the figures for the pEC50 in the assay with HeLa cells (setting [1]), in the assay with HeLa cells (setting [2]) and in the assay with HeLa cells (setting [3]) were 4.75, 4.63 and 4.47, respectively.
With `N#Cc1c(N)nc(SCc2ccccc2)c(C#N)c1-c1ccccc1Cl` [LDN-0211958], the pIC50 against PAK3 is 6.48. The values for the pEC50 in the assay with HeLa cells (setting [1]), in the assay with HeLa cells (setting [2]) and in the assay on HeLa cells (setting [3]) were 4.95, 4.97 and 4.94, respectively.
`Cc1ccccc1-c1c(C#N)c(N)nc(SCc2ccccc2)c1C#N` [LDN-0211959] showed a pIC50 on PAK3 of 6.55. Also, the pEC50 in the assay with HeLa cells (setting [1]) was 4.95; in the assay on HeLa cells (setting [2]) it was 4.98; in the assay with HeLa cells (setting [3]), 4.90.

A word on the pIC50: it is −log10 of the IC50, conventionally taken in molar units. For orientation: pEC50 means the EC50 on a negative log10 scale, so that one unit is a factor of ten. What is called % Inhibition is the drop in the measured response relative to a control, in per cent. A high value points to a response far below the control.

The values above are taken from patent US20120208204A1, “Compositions and Methods for Inhibiting Tumor Growth” (The Brigham and Women's Hospital, Inc., priority 2009, published 2012).
